Measurements: patent US8598221B2 (priority 2009, dated 2013)

Tested on: cramps induced by acetic acid in the mouse
Experiment: animal or person
Format: in vivo
Description: The analgesic effect of a nefopam-celecoxib combination was investigated in the model of abdominal cramps induced in the mouse by intraperitoneal administration of acetic acid. This model of pain induced by a chemical substance corresponds to inflammatory, visceral and acute pain.
Male CD1 mice (bred: C. River) weighing between 25 and 30 grams are used after an acclimatization for at least 7 days in the animal house (temp.=22±2; humidity=50±20%; food SAFE “A04”; nyctohemeral cycle: 12 h/12 h (light: 7 h/19 h−darkness: 19 h/7 h)). • 2. Protocol
On the day of the experiment, the non-fasting mice are weighed, marked and distributed at random in batches of 10. The acetic acid solution (Sigma) is prepared at 0.6%, or 60 mg of acetic acid in 10 ml of 0.9% NaCl.
At t=0, the mouse receives celecoxib by the oral route. At t=30 min, the mouse is administered nefopam or its liquid vehicle by the subcutaneous route. At t=60 min, the acetic acid is injected intraperitoneally (0.1 ml/10 g).
The number of abdominal cramps is counted from 5 to 20 minutes after injection of acetic acid. Frank abdominal cramps characterized by stretching of the hindpaws and/or hollowing of the flanks with twisting are regarded as positive. • 3. Products
Nefopam hydrochloride (Biocodex, batch 38) (called simply nefopam hereunder) is dissolved in distilled water or 0.9% NaCl. Celecoxib (Celebrex® capsules) is suspended in Tween 80 at 1%. • 4. Statistical Analysis
The test used is an analysis of variance for 3 or more groups and a Student t-test for 2 groups. Then the treated group or groups that differ from the control group are determined. […] At least 10 mice are used for each dose, and at least 3 doses are used for determining the dose-response curve. The dose that produces 50% of antinociceptive effect (50% decrease in number of cramps) is calculated by a standard linear regression analysis of the dose-response curve.
The interaction is evaluated by an isobolographic analysis of the co-administration of a combination of doses at fixed ratio according to Tallarida (2000) op. cit., Tallarida et al. (1989) Life Sci. 45:947-961 and Tallarida et al. (1997) Life Sci. 61:PL417-PL425. The isobologram is constructed by joining the ED50 of celecoxib with that of nefopam to obtain the line of additivity. The ED50 of the combination is determined by linear regression analysis of the dose-response curve, and it is compared by a t-test with a theoretical additive ED50 obtained using the PharmToolsPro software.

## Cc1ccc(-c2cc(C(F)(F)F)nn2-c2ccc(S(N)(=O)=O)cc2)cc1 [Celecoxib, celecoxib]
Mus musculus, read-out: ED50 (dose producing 50% decrease in number of cramps)
  ED50: 40.2 ± 8.06 mg/kg
Celecoxib 10 mg/kg oral
  % variation of number of cramps: −9%
  Number of cramps (mean ± SEM): 28.2 ± 2.9
Celecoxib 20 mg/kg oral
  % variation of number of cramps: −42%
  Number of cramps (mean ± SEM): 18.1 ± 3.2
Celecoxib 50 mg/kg oral
  % variation of number of cramps: −39%
  Number of cramps (mean ± SEM): 18.9 ± 2.2
Celecoxib 75 mg/kg oral
  % variation of number of cramps: −72%
  Number of cramps (mean ± SEM): 8.6 ± 2.1
Celecoxib 150 mg/kg oral
  % variation of number of cramps: −90%
  Number of cramps (mean ± SEM): 3.2 ± 1.0
